According to patent publication US9999222B2, “Herbicidal combination comprising azines” (BASF SE, priority 2014, dated 2018):
Values joined by “and” are separate entries in the source; they are usually repeats but may differ in a detail not shown here. Identical values can stand only once. Like-named read-outs stand apart in the source and are kept apart here.

What was measured:
Experiment in all cases: Greenhouse test, pre-emergence treatment
[1] = tested on: SORHA; format: in vivo, Sorghum halepense; conditions: 125 g ai/ha, 20 DAT
Source text: (§1) The culture containers used were plastic flowerpots containing loamy sand with approximately 3.0% of humus as the substrate. The seeds of the test plants were sown separately for each species.
(§2) For the pre-emergence treatment, the active ingredients, which had been suspended or emulsified in water, were applied directly after sowing by means of finely distributing nozzles. The containers were irrigated gently to promote germination and growth and subsequently covered with transparent plastic hoods until the plants had rooted. This cover caused uniform germination of the test plants, unless this had been impaired by the active ingredients.
(§3) Depending on the species, the plants were kept at 10-25° C. or 20-35° C., respectively.
(§4) The test period extended over 2 to 4 weeks. During this time, the plants were tended, and their response to the individual treatments was evaluated.
(§5) Evaluation was carried out using a scale from 0 to 100. 100 means no emergence of the plants, or complete destruction of at least the aerial moieties, and 0 means no damage, or normal course of growth. A moderate herbicidal activity is given at values of at least 60, a good herbicidal activity is given at values of at least 70, and a very good herbicidal activity is given at values of at least 85.
(§6) The respective stated components a and b, and if appropriate, c were formulated as a 10% by weight strength emulsion concentrate and, with addition of the amount of solvent system, introduced into the spray liquor used for applying the active compound.
(§7) In the examples, the solvent used was water.
(§8) In the examples below, using the method of S. R. Colby (1967) “Calculating synergistic and antagonistic responses of herbicide combinations”, Weeds 15, p. 22ff., the value E, which is expected if the activity of the individual active compounds is only additive, was calculated. E=X+Y−(X·Y/100) where • X=percent activity using active compound a at an application rate A; • Y=percent activity using active compound b at an application rate B; • E=expected activity (in %) by a+b at application rates A+B.
(§9) If the value found experimentally is higher than the value E calculated according to Colby, a synergistic effect is present.

[2] = tested on: AVEFA; format: in vivo, Avena fatua; conditions: 250 g ai/ha, 20 DAT
Source text: as §1, §2, §3, §4, §5, §6, §7, §8, §9

[3] = tested on: GALAP; format: in vivo, Galium aparine; conditions: 20 DAT
Outline: (§10)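 Seeds were sown in loamy sand with about 3.0% humus, and compounds in water were sprayed immediately after sowing, alone or as combinations formulated as 10% emulsion concentrates. Plants grew under hoods until rooted, at 10-25 °C or 20-35 °C by species, for 2 to 4 weeks. Damage was scored 0-100 (100 = no emergence or complete destruction), and Colby expected values were E=X+Y−(X·Y/100).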

[4] = tested on: ALOMY; format: in vivo, Alopecurus myosuroides
Source text: as §1, §2, §3, §4, §5, §6, §7, §8, §9

[5] = tested on: KCHSC; format: in vivo, Kochia scoparia; conditions: for observed % activity: 20 DAT; for inhibition at 31 g/ha: use rate 31 g ai/ha; for inhibition at 62 g/ha: use rate 62 g ai/ha
Outline: as §10

[6] = tested on: POLCO; format: in vivo, Polygonum convolvulus; conditions: for observed % activity: 20 DAT; for inhibition at 62 g/ha: use rate 62 g ai/ha
Outline: as §10

[7] = tested on: LOLMU; format: in vivo, Lolium multiflorum; conditions: for observed % activity: 20 DAT
Source text: as §1, §2, §3, §4, §5, §6, §7, §8, §9

[8] = tested on: PHACA; format: in vivo, Phalaris canariensis
Source text: as §1, §2, §3, §4, §5, §6, §7, §8, §9

[9] = tested on: ECHCG; format: in vivo, Echinocloa crus-galli; conditions: Echinochloa crus-galli, 480 h, read-out: observed % activity 20 DAT
Source text: as §1, §2, §3, §4, §5, §6, §7, §8, §9

[10] = tested on: APESV; format: in vivo, Apera spica-venti; conditions: use rate 15.5 g ai/ha
Source text: as §1, §2, §3, §4, §5, §6, §7, §8, §9

[11] = tested on: GERPU; format: in vivo, Geranium pusillum; conditions: pre-emergence, pre-emergence
Outline: as §10

[12] = tested on: SETFA; format: in vivo, Setaria faberi; conditions: for inhibition at 7.75 g/ha / inhibition at 15.5 g/ha: Setaria faberi, 480 h, read-out: observed % activity 20 DAT; for inhibition at 15.5 g/ha: use rate 15.5 g ai/ha
Source text: as §1, §2, §3, §4, §5, §6, §7, §8, §9

[13] = tested on: VIOAR; format: in vivo, Viola arvensis; conditions: Viola arvensis, 480 h, read-out: observed % activity 20 DAT
Source text: as §1, §2, §3, §4, §5, §6, §7, §8, §9

[14] = pre-emergence, use rate 7.75 g ai/ha
[15] = pre-emergence, use rate 15.5 g ai/ha
[16] = pre-emergence, use rate 31 g ai/ha
[17] = pre-emergence, use rate 62 g ai/ha
[18] = Bassia scoparia, pre-emergence, 480 h, KCHSC, pre-emergence, individual, read-out: observed % activity 20 DAT
[19] = Bassia scoparia, pre-emergence, 480 h, pre-emergence, read-out: observed % activity 20 DAT

`COC[C@H](C)N(C(=O)CCl)c1c(C)csc1C` [dimethenamid-P] was tested, and the observed % activity [1] was 98%, the observed % activity [2] was 65% and the observed % activity ([3]; 125 g ai/ha) was 30%. It also gave an observed % activity ([3]; 250 g ai/ha) of 50%, an observed % activity ([4]; 125 g ai/ha, 20 DAT) of 45% and an observed % activity ([5]; 125 g ai/ha) of 40%. It also gave an observed % activity ([5]; 250 g ai/ha) of 85%, an observed % activity ([6]; 125 g ai/ha) of 55% and an observed % activity ([6]; 250 g ai/ha) of 50%. The observed % activity ([7]; 125 g ai/ha) was 95%, the observed % activity ([7]; 250 g ai/ha) was 95% and the observed % activity ([8]; 125 g ai/ha, 20 DAT) was 80%.

Work on `CC(C)(F)c1nc(N)nc(Nc2c(F)cccc2F)n1` [compound 10, N4-(2,6-difluorophenyl)-6-(1-fluoro-1-methyl-ethyl)-1,3,5-triazine-2,4-diamine] yielded an inhibition at 7.75 g/ha ([9]; use rate 7.75 g ai/ha) of 90%, an inhibition at 15.5 g/ha ([9]; use rate 15.5 g ai/ha) of 95% and an inhibition at 15.5 g/ha ([10]; Apera spica-venti, 480 h, read-out: observed % activity 20 DAT) of 95%. For the same molecule, the “observed % activity 20 DAT” value [10] was 98%, the inhibition at 15.5 g/ha ([11]; Geranium pusillum, 480 h, use rate 15.5 g ai/ha, read-out: observed % activity 20 DAT) was 75% and the “observed % activity 20 DAT” value ([11]; use rate 7.75 g ai/ha) was 50%. The inhibition at 15.5 g/ha ([4]; Alopecurus myosuroides, pre-emergence, 480 h, ALOMY, pre-emergence, individual, use rate 15.5 g ai/ha, read-out: observed % activity 20 DAT) was 65%, the inhibition at 31 g/ha ([4]; Alopecurus myosuroides, pre-emergence, 480 h, ALOMY, pre-emergence, individual, use rate 31 g ai/ha, read-out: observed % activity 20 DAT) was 90% and the inhibition at 62 g/ha ([4]; Alopecurus myosuroides, pre-emergence, 480 h, ALOMY, pre-emergence, individual, use rate 62 g ai/ha, read-out: observed % activity 20 DAT) was 90%. The inhibition at 7.75 g/ha ([4]; Alopecurus myosuroides, pre-emergence, 480 h, pre-emergence, use rate 7.75 g ai/ha, read-out: observed % activity 20 DAT) was 65%, the inhibition at 31 g/ha ([4]; Alopecurus myosuroides, pre-emergence, 480 h, pre-emergence, use rate 31 g ai/ha, read-out: observed % activity 20 DAT) was 90% and the inhibition at 62 g/ha ([4]; Alopecurus myosuroides, pre-emergence, 480 h, pre-emergence, use rate 62 g ai/ha, read-out: observed % activity 20 DAT) was 90%. For the same molecule, the “observed % activity 20 DAT” value [4, 14] was 75%, the “observed % activity 20 DAT” value [4, 15] was 70% and 95% and the “observed % activity 20 DAT” value [4, 16] was 98%. The “observed % activity 20 DAT” value [4, 17] was 95% and 98%, the inhibition at 31 g/ha [5, 18] was 75% and the inhibition at 62 g/ha [5, 18] was 90%. It also gave an inhibition at 16.5 g/ha ([5]; Bassia scoparia, pre-emergence, 480 h, pre-emergence, use rate 16.5 g ai/ha, read-out: observed % activity 20 DAT) of 65%, an inhibition at 31 g/ha [5, 19] of 95% and an inhibition at 62 g/ha [5, 19] of 90%. The “observed % activity 20 DAT” value [5, 14] was 85% and 55%, the “observed % activity 20 DAT” value [5, 15] was 85% and the inhibition at 62 g/ha ([6]; Fallopia convolvulus, pre-emergence, 480 h, POLCO, pre-emergence, individual, read-out: observed % activity 20 DAT) was 95%. For the same molecule, the inhibition at 7.75 g/ha ([6]; Fallopia convolvulus, pre-emergence, 480 h, pre-emergence, use rate 7.75 g ai/ha, read-out: observed % activity 20 DAT) was 70%, the inhibition at 15.5 g/ha ([6]; Fallopia convolvulus, pre-emergence, 480 h, pre-emergence, use rate 15.5 g ai/ha, read-out: observed % activity 20 DAT) was 90% and the inhibition at 62 g/ha ([6]; Fallopia convolvulus, pre-emergence, 480 h, pre-emergence, read-out: observed % activity 20 DAT) was 95%. The “observed % activity 20 DAT” value [6, 14] was 75%, the inhibition at 7.75 g/ha ([7]; Lolium multiflorum, pre-emergence, 480 h, LOLMU, pre-emergence, individual, use rate 7.75 g ai/ha, read-out: observed % activity 20 DAT) was 30% and the inhibition at 31 g/ha ([7]; Lolium multiflorum, pre-emergence, 480 h, LOLMU, pre-emergence, individual, use rate 31 g ai/ha, read-out: observed % activity 20 DAT) was 70%. For the same molecule, the inhibition at 31 g/ha ([7]; Lolium multiflorum, pre-emergence, 480 h, pre-emergence, use rate 31 g ai/ha, read-out: observed % activity 20 DAT) was 70%, the inhibition at 62 g/ha ([7]; Lolium multiflorum, pre-emergence, 480 h, pre-emergence, use rate 62 g ai/ha, read-out: observed % activity 20 DAT) was 90% and the “observed % activity 20 DAT” value [7, 14] was 15% and 20% and 0%. The “observed % activity 20 DAT” value [7, 15] was 35% and 50% and 25%, the “observed % activity 20 DAT” value [7, 16] was 80% and the “observed % activity 20 DAT” value [7, 17] was 85%. For the same molecule, the inhibition at 7.75 g/ha ([12]; SETFA, individual, use rate 7.75 g ai/ha) was 90%, the inhibition at 15.5 g/ha ([12]; SETFA, individual) was 98% and the inhibition at 7.75 g/ha ([12]; use rate 7.75 g ai/ha) was 75%. The inhibition at 15.5 g/ha [12] was 95%, the “observed % activity 20 DAT” value ([12]; use rate 7.75 g ai/ha) was 65% and the inhibition at 7.75 g/ha ([13]; use rate 7.75 g ai/ha) was 90%. The inhibition at 15.5 g/ha ([13]; use rate 15.5 g ai/ha) was 85%, the inhibition at 31 g/ha ([8]; Phalaris canariensis, pre-emergence, 480 h, pre-emergence, use rate 31 g ai/ha, read-out: observed % activity 20 DAT) was 80% and the inhibition at 62 g/ha ([8]; Phalaris canariensis, pre-emergence, 480 h, pre-emergence, use rate 62 g ai/ha, read-out: observed % activity 20 DAT) was 75%. The “observed % activity 20 DAT” value [8, 15] was 60%, the “observed % activity 20 DAT” value [8, 16] was 85% and the “observed % activity 20 DAT” value [8, 17] was 70%.
